Results as given in patent publication US20260356804A1, “SODIUM CHANNEL BLOCKING COMPOUNDS, DERIVATIVES THEREOF, AND METHODS OF THEIR USE” (LATIGO BIOTHERAPEUTICS, INC., priority 2022, published 2026).
Counter-ions that a name gives are not always drawn. Like-named read-outs stand apart in the source and are kept apart here.

Molecular target: T1, human Nav1.8/b3 (Homo sapiens, UniProt Q9Y5Y9)
T1 construct: expressed in transfected cells; host or cells: CHO
Test: Compound Profiling Human NaV1.8/β3 Cell Line—SyncroPatch384PE Assay (automated patch clamp, stably transfected CHO cells)
Format: cell-based
Settings: Nav1.8/b3 CHO cells

[1] = P1 (IC50, resting state block), P1 measurement, resting state block, holding potential −120 mV, first set of compounds
[2] = P2 (IC50, inactivated state block), P2 measurement, inactivated state block, inactivation step −35 mV 10 sec, first set of compounds
[3] = P1 (IC50, resting state block), P1 measurement, resting state block, holding potential −120 mV, third set of compounds
[4] = P2 (IC50, inactivated state block), P2 measurement, inactivated state block, inactivation step −35 mV 10 sec, third set of compounds
[5] = P1 (IC50, resting state block), P1 measurement, resting state block, holding potential −120 mV, fourth set of compounds
[6] = P2 (IC50, inactivated state block), P2 measurement, inactivated state block, inactivation step −35 mV 10 sec, fourth set of compounds
[7] = P1 measurement, resting state block, holding potential −120 mV, first set of compounds, read-out: P1 (IC50, resting state block)
[8] = P2 measurement, inactivated state block, inactivation step −35 mV 10 sec, first set of compounds, read-out: P2 (IC50, inactivated state block)
[9] = P1 (IC50, resting state block), P1 measurement, resting state block, holding potential −120 mV, second set of compounds
[10] = P2 (IC50, inactivated state block), P2 measurement, inactivated state block, inactivation step −35 mV 10 sec, second set of compounds

T1 sequence (Q9Y5Y9 whole entry): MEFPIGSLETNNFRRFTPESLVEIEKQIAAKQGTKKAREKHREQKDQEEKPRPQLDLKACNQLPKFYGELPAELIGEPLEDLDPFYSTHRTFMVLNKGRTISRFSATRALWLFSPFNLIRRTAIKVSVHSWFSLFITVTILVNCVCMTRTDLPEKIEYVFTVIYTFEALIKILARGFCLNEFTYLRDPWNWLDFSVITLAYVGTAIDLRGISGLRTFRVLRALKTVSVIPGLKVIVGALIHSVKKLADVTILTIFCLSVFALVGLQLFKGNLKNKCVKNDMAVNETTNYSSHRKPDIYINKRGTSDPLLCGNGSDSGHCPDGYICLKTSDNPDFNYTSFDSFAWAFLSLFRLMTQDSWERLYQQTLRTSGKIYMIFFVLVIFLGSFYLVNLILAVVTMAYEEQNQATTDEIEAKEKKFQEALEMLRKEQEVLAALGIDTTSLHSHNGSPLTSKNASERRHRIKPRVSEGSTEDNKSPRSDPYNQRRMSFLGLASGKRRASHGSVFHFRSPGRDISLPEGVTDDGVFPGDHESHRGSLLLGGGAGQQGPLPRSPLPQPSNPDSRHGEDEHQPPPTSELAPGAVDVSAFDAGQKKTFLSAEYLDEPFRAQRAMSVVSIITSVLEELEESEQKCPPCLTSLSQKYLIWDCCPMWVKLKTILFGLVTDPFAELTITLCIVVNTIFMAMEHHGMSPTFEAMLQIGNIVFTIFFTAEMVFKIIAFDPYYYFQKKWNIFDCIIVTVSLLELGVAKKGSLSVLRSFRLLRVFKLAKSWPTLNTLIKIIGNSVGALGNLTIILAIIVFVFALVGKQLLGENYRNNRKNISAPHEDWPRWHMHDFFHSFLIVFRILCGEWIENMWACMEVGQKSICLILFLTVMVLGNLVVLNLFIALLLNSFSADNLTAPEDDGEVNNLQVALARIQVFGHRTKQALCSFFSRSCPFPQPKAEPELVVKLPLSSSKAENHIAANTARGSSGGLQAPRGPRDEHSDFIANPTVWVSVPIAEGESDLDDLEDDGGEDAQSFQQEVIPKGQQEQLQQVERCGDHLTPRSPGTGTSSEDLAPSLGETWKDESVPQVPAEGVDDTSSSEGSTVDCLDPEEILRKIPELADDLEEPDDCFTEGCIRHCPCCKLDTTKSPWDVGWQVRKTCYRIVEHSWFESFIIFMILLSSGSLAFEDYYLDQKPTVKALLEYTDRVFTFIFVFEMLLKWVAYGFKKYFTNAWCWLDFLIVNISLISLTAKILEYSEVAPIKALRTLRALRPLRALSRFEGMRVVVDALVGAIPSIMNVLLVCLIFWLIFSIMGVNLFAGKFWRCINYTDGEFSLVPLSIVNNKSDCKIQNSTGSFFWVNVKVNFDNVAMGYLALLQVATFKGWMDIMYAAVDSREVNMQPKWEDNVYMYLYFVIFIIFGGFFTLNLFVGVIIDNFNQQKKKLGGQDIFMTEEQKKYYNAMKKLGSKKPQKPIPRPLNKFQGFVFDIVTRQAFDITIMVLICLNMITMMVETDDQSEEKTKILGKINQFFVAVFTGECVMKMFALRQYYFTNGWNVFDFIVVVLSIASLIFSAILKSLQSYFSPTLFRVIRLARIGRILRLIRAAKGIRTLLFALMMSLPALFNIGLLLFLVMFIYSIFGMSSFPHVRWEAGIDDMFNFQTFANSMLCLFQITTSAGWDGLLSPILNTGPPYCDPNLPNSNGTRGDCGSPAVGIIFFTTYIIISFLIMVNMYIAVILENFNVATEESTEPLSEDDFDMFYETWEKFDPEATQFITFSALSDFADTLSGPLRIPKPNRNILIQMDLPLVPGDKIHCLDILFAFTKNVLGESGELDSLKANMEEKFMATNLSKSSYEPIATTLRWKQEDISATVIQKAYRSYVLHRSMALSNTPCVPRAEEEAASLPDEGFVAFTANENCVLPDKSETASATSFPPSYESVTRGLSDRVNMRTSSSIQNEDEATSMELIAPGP
T1 sequence (Q9NY72 23-215 partner): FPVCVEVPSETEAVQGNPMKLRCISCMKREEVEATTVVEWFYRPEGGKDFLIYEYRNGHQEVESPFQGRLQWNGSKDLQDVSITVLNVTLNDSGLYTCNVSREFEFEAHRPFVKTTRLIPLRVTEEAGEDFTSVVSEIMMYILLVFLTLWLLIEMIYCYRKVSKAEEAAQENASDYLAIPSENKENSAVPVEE

SMILES: Cc1nc(F)ccc1Oc1cc(C2CC2)c(C(F)(F)F)cc1C(=O)Nc1ccc(F)c([S@@](C)(=N)=O)c1 [Example 51A]
- IC50 [1]: < 5 nM
- IC50 [2]: < 5 nM

SMILES: Cc1nc(F)ccc1Oc1ncc(C(F)(F)F)c(C)c1C(=O)Nc1ccc(F)c([S@@](C)(=N)=O)c1 (single isomer, unassigned) [Example 14C]
- IC50 [3]: 5 to 50 nM
- IC50 [4]: 5 to 50 nM

SMILES: Cc1nc(F)ccc1Oc1ncc(C(F)(F)F)c(C)c1C(=O)Nc1cccc([S@@](C)(=O)=NC(=O)C2COC2)c1 [Example 6D, (R)-2-((6-fluoro-2-methylpyridin-3-yl)oxy)-4-methyl-N-(3-(S-methyl-N-(oxetane-3-carbonyl)sulfonimidoyl)phenyl)-5-(trifluoromethyl)nicotinamide]
- IC50 [5]: < 5 nM
- IC50 [6]: < 5 nM

SMILES: C[S@@](=N)(=O)c1cc(NC(=O)c2cc(Cl)c(C(F)(F)F)cc2OCC(F)(F)F)ccn1 [Example 35A]
- IC50 [7]: 50 to 100 nM
- IC50 [8]: 50 to 100 nM

SMILES: Cc1nc(F)ccc1Oc1ccc(C(F)(F)F)c(C)c1C(=O)Nc1cccc([S@@](C)(=O)=NC(=O)CN)c1 [Example 26B]
- IC50 [9]: < 5 nM
- IC50 [10]: < 5 nM

SMILES: Cc1nc(F)ccc1Oc1ccc(C(F)(F)F)c(F)c1C(=O)Nc1cccc([S@@](C)(=O)=NC(=O)[C@@H]2CCCN2)c1 [Example 21B, (S)—N—((R)-(3-(2-fluoro-6-((6-fluoro-2-methylpyridin-3-yl)oxy)-3-(trifluoromethyl)benzamido)phenyl)(methyl)(oxo)-λ^6-sulfaneylidene)pyrrolidine-2-carboxamide]
- IC50 [9]: 5 to 50 nM
- IC50 [10]: 5 to 50 nM

SMILES: Cc1nc(F)ccc1Oc1ncc(C(F)(F)F)c(C)c1C(=O)Nc1cccc([S@@](C)(=O)=NC(=O)[C@@H]2C[C@@H](O)CN2)c1 [Example 17D, 2-((6-fluoro-2-methylpyridin-3-yl)oxy)-N-(3-((R)—N-((2S,4R)-4-hydroxypyrrolidine-2-carbonyl)-S-methylsulfonimidoyl)phenyl)-4-methyl-5-(trifluoromethyl)nicotinamide]
- IC50 [5]: < 5 nM
- IC50 [6]: < 5 nM

SMILES: Cc1nc(F)ccc1Oc1cnc(C(F)(F)F)c(C)c1C(=O)Nc1cccc([S@](C)(=N)=O)c1 [Example 44C, (R)-5-((6-fluoro-2-methylpyridin-3-yl)oxy)-3-methyl-N-(3-(S-methylsulfonimidoyl)phenyl)-2-(trifluoromethyl)isonicotinamide]
- IC50 (P1 measurement, resting state block, holding potential −120 mV, third set of compounds, read-out: P1 (IC50, resting state block)): 5 to 50 nM
- IC50 (P2 measurement, inactivated state block, inactivation step −35 mV 10 sec, third set of compounds, read-out: P2 (IC50, inactivated state block)): 5 to 50 nM

SMILES: Cc1nc(F)ccc1Oc1nnc(C(F)(F)F)c(C)c1C(=O)Nc1cccc([S@@](C)(=O)=NC(=O)[C@@H](C)O)c1 [Example 19D, 3-((6-fluoro-2-methylpyridin-3-yl)oxy)-N-(3-((R)—N—((R)-2-hydroxypropanoyl)-S-methylsulfonimidoyl)phenyl)-5-methyl-6-(trifluoromethyl)pyridazine-4-carboxamide]
- IC50 [5]: 5 to 50 nM
- IC50 [6]: 5 to 50 nM

SMILES: Cc1nc(F)ccc1Oc1ncc(C(F)(F)F)c(C)c1C(=O)Nc1cccc([S@@](C)(=O)=NC(=O)[C@H]2CCCN2)c1 [Example 23D, N-(3-((R)—N-(D-prolyl)-S-methylsulfonimidoyl)phenyl)-2-((6-fluoro-2-methylpyridin-3-yl)oxy)-4-methyl-5-(trifluoromethyl)nicotinamide formate]
- IC50 [5]: < 5 nM
- IC50 [6]: < 5 nM

SMILES: Cc1nc(F)ccc1Oc1cc(C2CC2)c(C(F)(F)F)c(C)c1C(=O)Nc1cccc([S@](C)(=N)=O)c1 [Example 9A, (R)-4-cyclopropyl-6-((6-fluoro-2-methylpyridin-3-yl)oxy)-2-methyl-N-(3-(S-methylsulfonimidoyl)phenyl)-3-(trifluoromethyl)benzamide]
- IC50 [7]: < 5 nM
- IC50 [8]: < 5 nM

SMILES: Cc1nc(F)ccc1Oc1ncc(C(C)C)c(C)c1C(=O)Nc1cccc([S@](C)(=N)=O)c1 [Example 104C]
- IC50 [3]: 50 to 100 nM
- IC50 [4]: 50 to 100 nM

SMILES: Cc1nc(F)ccc1Oc1ncc(-c2ccc(F)c(F)c2)c(C)c1C(=O)Nc1cccc([S@](C)(=N)=O)c1 [Example 6C, (R)-5-(3,4-difluorophenyl)-2-((6-fluoro-2-methylpyridin-3-yl)oxy)-4-methyl-N-(3-(S-methylsulfonimidoyl)phenyl)nicotinamide]
- IC50 [3]: < 5 nM
- IC50 [4]: < 5 nM

SMILES: Cc1nc(F)ccc1Oc1cc(C(F)(F)F)cc(F)c1C(=O)Nc1ccc(C(N)=O)cc1 [Example 36A]
- IC50 [1]: 5 to 50 nM
- IC50 [2]: 5 to 50 nM

SMILES: Cc1ccc(Oc2ncc(C(F)(F)F)c(C)c2C(=O)Nc2cccc([S@@](C)(=N)=O)c2)c(F)n1 [Example 121C]
- IC50 [3]: 50 to 100 nM
- IC50 [4]: 50 to 100 nM

SMILES: Cc1nc(F)ccc1Oc1cnc(C(F)(F)F)c(F)c1C(=O)Nc1cccc([S@](C)(=N)=O)c1 [Example 110C]
- IC50 [3]: 5 to 50 nM
- IC50 [4]: 5 to 50 nM

SMILES: Cc1nc(F)ccc1Oc1cc(C(F)(F)F)c(Cl)cc1C(=O)Nc1ccc(F)c(S(C)(=O)=O)c1 [Example 54A]
- IC50 [1]: < 5 nM
- IC50 [2]: < 5 nM

SMILES: Cc1nc(F)ccc1Oc1ncc(C(F)(F)F)c(C)c1C(=O)Nc1cccc([S@@](C)(=O)=NC(=O)CN)c1 [Example 2D, (R)-2-((6-fluoro-2-methylpyridin-3-yl)oxy)-N-(3-(N-glycyl-S-methylsulfonimidoyl)phenyl)-4-methyl-5-(trifluoromethyl)nicotinamide]
- IC50 [5]: < 5 nM
- IC50 [6]: < 5 nM

SMILES: Cc1cc(C#N)ccc1Oc1cc(C(F)(F)F)nnc1C(=O)Nc1cccc(S(C)(=N)=O)c1 (stereo not shown) [Example 39C, 4-(4-cyano-2-methylphenoxy)-N-(3-(S-methylsulfonimidoyl)phenyl)-6-(trifluoromethyl)pyridazine-3-carboxamide]
- IC50 [3]: > 200 nM
- IC50 [4]: > 200 nM

SMILES: Cc1nc(F)ccc1Oc1nc(C(F)(F)F)c(Cl)c(C)c1C(=O)Nc1cccc([S@](C)(=N)=O)c1 [Example 35C, (R)-5-chloro-2-((6-fluoro-2-methylpyridin-3-yl)oxy)-4-methyl-N-(3-(S-methylsulfonimidoyl)phenyl)-6-(trifluoromethyl)nicotinamide]
- IC50 [3]: < 5 nM
- IC50 [4]: < 5 nM

SMILES: Cc1nc(F)ccc1Oc1cc(C(F)(F)F)c(Cl)cc1C(=O)Nc1ccc(F)c([S@](C)(=N)=O)c1 [Example 71A]
- IC50 [1]: < 5 nM
- IC50 [2]: < 5 nM

SMILES: CCCc1cnc(Oc2ccc(F)nc2C)c(C(=O)Nc2cccc([S@](C)(=N)=O)c2)c1C [Example 103C]
- IC50 [3]: 50 to 100 nM
- IC50 [4]: 50 to 100 nM

SMILES: Cc1nc(F)ccc1Oc1ncc(-c2ccc(C#N)cc2)c(C)c1C(=O)Nc1cccc([S@](C)(=N)=O)c1 [Example 3C, (R)-5-(4-cyanophenyl)-2-((6-fluoro-2-methylpyridin-3-yl)oxy)-4-methyl-N-(3-(S-methylsulfonimidoyl)phenyl)nicotinamide]
- IC50 [3]: 5 to 50 nM
- IC50 [4]: 5 to 50 nM

SMILES: Cc1nc(F)ccc1Oc1nnc(C(F)(F)F)c(C)c1C(=O)Nc1cccc([S@@](C)(=O)=NC(=O)[C@H](C)O)c1 [Example 18D, 3-((6-fluoro-2-methylpyridin-3-yl)oxy)-N-(3-((R)—N—((S)-2-hydroxypropanoyl)-S-methylsulfonimidoyl)phenyl)-5-methyl-6-(trifluoromethyl)pyridazine-4-carboxamide]
- IC50 [5]: < 5 nM
- IC50 [6]: < 5 nM

SMILES: Cc1nc(F)ccc1Oc1ncc(C(F)(F)F)c(C)c1C(=O)Nc1cccc(C(N)=O)c1 [Example 119C]
- IC50 [3]: < 5 nM
- IC50 [4]: < 5 nM

SMILES: Cc1nc(F)ccc1Oc1nc(C(F)(F)F)c(Cl)c(C)c1C(=O)Nc1ccc(F)c([S@@](C)(=N)=O)c1 [Example 94C]
- IC50 [3]: 5 to 50 nM
- IC50 [4]: 5 to 50 nM

SMILES: CC(=O)N=[S@](C)(=O)c1cccc(NC(=O)c2c(Oc3ccc(F)nc3C)ncc(C(F)(F)F)c2C)c1 [Example 3D, (R)—N-(3-(N-acetyl-S-methylsulfonimidoyl)phenyl)-2-((6-fluoro-2-methylpyridin-3-yl)oxy)-4-methyl-5-(trifluoromethyl)nicotinamide]
- IC50 [5]: < 5 nM
- IC50 [6]: < 5 nM

SMILES: Cc1nc(F)ccc1Oc1cc(C(F)(F)F)c(Cl)c(C)c1C(=O)Nc1ccnc([S@@](C)(=N)=O)c1 [Example 60A]
- IC50 [1]: < 5 nM
- IC50 [2]: < 5 nM

SMILES: COc1ccc(Oc2ncc(C(F)(F)F)c(C)c2C(=O)Nc2cccc([S@@](C)(=N)=O)c2)c(C)n1 [Example 116C]
- IC50 [3]: 5 to 50 nM
- IC50 [4]: 5 to 50 nM

SMILES: Cc1nc(F)ccc1Oc1cc(C(F)(F)F)c(Cl)c(F)c1C(=O)Nc1ccc(C(N)=O)cc1 [Example 37A]
- IC50 [1]: < 5 nM
- IC50 [2]: < 5 nM

SMILES: Cc1nc(F)ccc1Oc1cc(C(F)(F)F)c(Cl)cc1C(=O)Nc1ccc(C(N)=O)cc1 [Example 68A]
- IC50 [1]: 5 to 50 nM
- IC50 [2]: < 5 nM

SMILES: COc1cc(C#N)ccc1Oc1ncc(-c2ccc(C)cc2)c(C)c1C(=O)Nc1cccc([S@](C)(=N)=O)c1 [Example 21C, (R)-2-(4-cyano-2-methoxyphenoxy)-4-methyl-N-(3-(S-methylsulfonimidoyl)phenyl)-5-(p-tolyl)nicotinamide]
- IC50 [3]: < 5 nM
- IC50 [4]: < 5 nM
